# Patent publication US10800816B2 (Baxalta GmbH, priority 2012, dated 2020)
# Where a SMILES comes first, the peptide text is derived from it. Bridges are numbered along the chain shown (N, C = ends). [ ]: non-standard residue; d: D form. Tle = CC(C)(C)[C@H](N)C(=O)O; hCys = N[C@@H](CCS)C(=O)O; Aib = CC(C)(N)C(=O)O
# How the values were obtained:
# [1] = system: Tissue Factor Pathway Inhibitor (TFPI); assay: IC50 ELISA | IC50 [nM]
# Description: Table printed on a drawing sheet, FIGURE 78U
# Head of the field: IC50 ELISA | IC50 [nM]
# [2] = mouse, 24 h
# fl-TFPI / LRP = target: T1, fl-TFPI / LRP (Homo sapiens, UniProt P10646); assay: BIAcore: fl-TFPI binding to LRP in presence of peptide; conditions: 1 μM peptide, 10 nM fl-TFPI
# T1 sequence (P10646 29-304): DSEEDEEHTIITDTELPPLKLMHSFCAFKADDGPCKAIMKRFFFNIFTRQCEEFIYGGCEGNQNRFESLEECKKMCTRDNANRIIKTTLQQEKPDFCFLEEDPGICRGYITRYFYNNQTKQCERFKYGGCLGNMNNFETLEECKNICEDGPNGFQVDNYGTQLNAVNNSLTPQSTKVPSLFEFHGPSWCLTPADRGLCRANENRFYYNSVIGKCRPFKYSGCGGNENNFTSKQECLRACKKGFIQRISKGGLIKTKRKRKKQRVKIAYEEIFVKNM
# T1 sequence (Q07954 852-1182 partner limits assumed): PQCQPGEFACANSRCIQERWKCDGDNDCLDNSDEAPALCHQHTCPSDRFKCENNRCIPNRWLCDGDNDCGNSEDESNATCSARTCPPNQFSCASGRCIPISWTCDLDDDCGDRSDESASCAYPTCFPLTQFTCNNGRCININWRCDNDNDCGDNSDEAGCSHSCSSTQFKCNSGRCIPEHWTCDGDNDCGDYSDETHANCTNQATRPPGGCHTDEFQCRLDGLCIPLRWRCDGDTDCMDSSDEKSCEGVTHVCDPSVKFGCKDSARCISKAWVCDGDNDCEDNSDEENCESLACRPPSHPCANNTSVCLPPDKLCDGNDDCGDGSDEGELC
# FVIII-deficient mice = assay: Puncture-induced hemarthrosis in FVIII-deficient mice; type: in vivo, mouse; conditions: 1 mg/kg i.v.
# Protocol: After each product administration, the right knee joint capsule was punctured with a 30 gauge needle to induce hemorrhage. Animals were sacrificed three days following injury, and bleeding was assessed via gross and histological methods. […] Summary bleeding scores (SBS), which include visual and histological bleeding scores, were assigned to each joint. […] The results described herein further confirm that peptides of the invention provide a prophylactic or protective effect against bleeding in an in vivo model of hemophilia A.
# [3] = 24 h
# FIX knock-out mice = assay: Tail-tip bleed model in FIX knock-out mice; type: in vivo, mouse; conditions: 1 mg/kg JBT2329 alone
# Protocol: JBT2329 also was tested in a FIX knock-out tail-tip bleed mouse model, which is a clinically-relevant model for hemophilia B human patients. The methodology was substantially similar to that described above with respect to the FVIII knock-out model. Instead of ADVATE, a recombinant FIX (rFIX) served as a reference. Median total blood loss in buffer-treated animals was 935 mg. Median total blood loss in animals treated with a murine anti-TFPI antibody (maTFPI) was 774 mg. Median total blood loss was reduced further when the animals received combined treatment of maTFPI and rFIX.
# [4] = Pharmacokinetics in C57Bl6 mice; type: in vivo, mouse
# C57Bl/6NCrl mice = assay: Nail clip bleeding study in mice; type: in vivo, mouse
# fl-TFPI / ASGPR = target: T2, fl-TFPI / ASGPR (Homo sapiens, UniProt P10646); assay: BIAcore: fl-TFPI binding to ASGPR in presence of peptide; conditions: 1 μM peptide
# T2 sequence (P10646 29-304): T1 sequence (P10646 29-304)
# FVIII knock-out mice = conditions: 1 mg/kg without ADVATE
# [5] = system: FVIII-inhibited whole blood; assay: Rotation thromboelastography (ROTEM) in whole blood; design: species or system human; conditions: Hem A / FVIII-inhibited human whole blood
# Protocol: Continuous visco-elastic assessment of human whole blood clot formation and firmness was performed by rotation thromboelastography with whole blood preparations in the presence or absence of peptides. […] Test samples were prepared by dissolving quantities of peptides in either DMSO or HEPES buffered saline (with or without 0.1% Tween 80).
# Recordings were made using a ROTEM thromboelastography coagulation analyzer (Pentapharm, Munich, Germany) at 37° C. Briefly, blood is added into a disposable cuvette in a heated cuvette holder. A disposable pin (sensor) is fixed on the tip of a rotating axis. The axis is guided by a high precision ball bearing system and rotates back and forth. The axis is connected with a spring for the measurement of elasticity. The exact position of the axis is detected by the reflection of light on a small mirror on the axis. The loss of elasticity when the sample clots leads to a change in the rotation of the axis. The data obtained are computer analyzed and visualized in a thromboelastogram. […] An elasticity of approximately zero is observed before clot formation begins. Mirror image traces above and below the zero line indicate the effect of clot formation on the rotation of the axis.
# The analytical set-up was as follows: to 20 μL of test sample or control, 300 μL of pre-warmed (37° C.) CTI treated citrated whole blood was added, followed by 20 μL of a 1:15 dilution of TF PRP reagent containing recombinant human tissue factor (rTF, 3 pM) (TS40, Thrombinoscope BV, Maastricht, The Netherlands). Coagulation was initiated by the addition of 20 μ200 mM CaCl2 (star-TEM®, Pentapharm, Munich, Germany) and recordings were allowed to proceed for at least 120 min. The final concentration of rTF in the assay was 11 or 44 fM.
# The thromboelastographic parameters of clotting time (CT), clot formation time (CFT) and maximum clot firmness (MCF) were recorded in accordance with the manufacturer's instructions. CT is defined as the time from the start of measurement to the start of clot formation. CFT is defined as the time from the start of clot formation until an amplitude of 20 mm is reached. MCF is the maximum difference in amplitude between the two traces during the assay. The first derivative of the data of the thromboelastogram are plotted to obtain a graph of velocity (mm/s) against time (s). From this graph, the maximum velocity (maxV) is determined. The time at which the maximum velocity is obtained (maxV-t) is also determined.
# This example describes a method for assessing clot formation in whole blood using rotation thromboelastography (ROTEM). The assay was performed as described in Example 8. The analytical set-up was as follows: 300 μL of pre-warmed (37° C.) CTI treated citrated whole blood was added to a peptide sample (10, 100, 1000 nM final assay concentration) or a control, followed by addition of a 1:15 dilution of TF PRP reagent containing recombinant human tissue factor (rTF, 3 pM) (TS40, Thrombinoscope BV, Maastricht, The Netherlands). In certain experiments, exogenous full length TFPI (flTFPI) at final concentrations of 2 or 10 nM was added to simulate flTFPI plasma levels of up to 50-fold over normal. Coagulation was initiated by the addition of 20 μL 200 mM CaCl2 (star-TEM®, Pentapharm, Munich, Germany) and recordings were allowed to proceed for at least 120 min. The final concentration of rTF in the assay was 44 fM. The thromboelastographic parameters of clotting time (CT), clot formation time (CFT) and maximum clot firmness (MCF) were recorded in accordance with the manufacturer's instructions. CT is defined as the time from the start of measurement to the start of clot formation. CFT is defined as the time from the start of clot formation until an amplitude of 20 mm is reached. MCF is the maximum difference in amplitude between the two traces during the assay.
# human TFPI-1 = target: T3, human TFPI-1 (Homo sapiens, UniProt P10646); assay: BIAcore surface plasmon resonance, immobilized human TFPI-1; type: binding; conditions: Table 6
# T3 construct: human TFPI-1 (residues 29-282 fused at the C-terminus to a 10 His-tag); purchased R&D Systems 2974-PI
# T3 sequence (P10646 29-282): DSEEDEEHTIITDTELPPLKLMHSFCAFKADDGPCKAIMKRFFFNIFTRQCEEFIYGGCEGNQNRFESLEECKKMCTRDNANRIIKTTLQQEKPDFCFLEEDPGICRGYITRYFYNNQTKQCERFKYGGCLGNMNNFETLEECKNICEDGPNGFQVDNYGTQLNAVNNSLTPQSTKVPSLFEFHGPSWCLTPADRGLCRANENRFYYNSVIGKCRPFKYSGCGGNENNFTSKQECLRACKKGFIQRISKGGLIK
# TFPI = assay: FXa inhibition assay (human TFPI); conditions: read-out: FXa Inhibition Assay EC50; Table 7 and text b402
# [6] = system: Tissue Factor Pathway Inhibitor (TFPI); assay: IC50 ELISA | Mean IC50 [nM]
# [7] = 0.1 mg/kg i.v., first 30 minutes
# [8] = 0.1 mg/kg i.v., second 30 minute period
compound,measurement,setting,value
Ac-FQSKpNVH-Tle-DaYF[-Hcy-RL-Aib--Hcy-]KL-NH2 [JBT00002489],IC50,[1],> 500 nM
"Ac-FQSKpNVHVDGYFERL-Aib-AKLC(PEG)-NH2 [JBT2329] (FQSKPNVHVDGYFERLXAKLC; acetyl, D-Pro, Aib, Cys-PEG 41.5 kD, amide; MOD_RES (1)..(1): N-terminal acetylation; MOD_RES (5)..(5): D-Pro; MOD_RES (17)..(17): Xaa is 2-amino-isobutyric acid; MOD_RES (21)..(21): Cys-PEG; MOD_RES (21)..(21): C-terminal amidation)",percentage of initial amount of peptide remaining in plasma,[2],≥ 60%
same,fl-TFPI interaction with LRP in presence of peptide,fl-TFPI / LRP,slight decrease in fl-TFPI LRP interaction
same,protective effect on joint bleeding (summary bleeding score),FVIII-deficient mice,"significantly greater than the effect of 10 IU/kg ADVATE, but less than 100 IU/kg ADVATE"
same,"Human Plasma Stability, 24 hour (%)",[3],67.3%
same,effect on median total blood loss,FIX knock-out mice,did not lead to a significant reduction in median total blood loss
same,HL_λ_z [h] (intravenous),"[4]; 1 mg/kg peptide content, intravenous",19.8 h
same,Bioavailability [%] (s.c.),"[4]; 1 mg/kg peptide content, s.c. AUC vs i.v. AUC",73.3%
same,reduction of total blood loss compared to vehicle,"C57Bl/6NCrl mice; 0.1 mg/kg i.v., 60 minutes",~60%
same,mean blood loss,"C57Bl/6NCrl mice; 0.1 mg/kg i.v., 60 minutes total",34.7 µL
same,mean blood loss,C57Bl/6NCrl mice; [7],16.0 µL
same,reduction of blood loss compared to vehicle,C57Bl/6NCrl mice; [7],about 50%
same,mean blood loss,C57Bl/6NCrl mice; [8],18.7 µL
same,reduction of blood loss compared to vehicle,C57Bl/6NCrl mice; [8],about 64%
same,mean blood loss,"C57Bl/6NCrl mice; 1.0 mg/kg i.v., entire 60 minutes",22.8 µL
same,mean blood loss,"C57Bl/6NCrl mice; 1.0 mg/kg i.v., first 30 minutes",12.2 µL
same,mean blood loss,"C57Bl/6NCrl mice; 1.0 mg/kg i.v., second 30 minute period",10.6 µL
same,reduction of blood loss compared to vehicle,"C57Bl/6NCrl mice; 10 mg/kg subcutaneous, 60 minutes",approximately 58%
same,fl-TFPI interaction with ASGPR in presence of peptide,fl-TFPI / ASGPR,diminished the ASGPR-fl-TFPI interaction
same,effect on median total blood loss,FVIII knock-out mice,did not reduce median total blood loss over that observed in buffer-treated animals
same,coagulation parameters,[5],restored prolonged coagulation parameters in Hem A blood
CC(=O)N[C@@H](Cc1ccccc1)C(=O)N[C@@H](CCC(N)=O)C(=O)N[C@@H](CO)C(=O)N[C@@H](CCCCN)C(=O)NCC(=O)N[C@@H](CC(N)=O)C(=O)N[C@H](C(=O)N[C@@H](Cc1ccccc1)C(=O)N[C@H](C(=O)N[C@@H](CC(=O)O)C(=O)NCC(=O)N[C@@H](Cc1ccc(O)cc1)C(=O)N[C@@H](Cc1ccccc1)C(=O)N[C@@H](CCC(=O)O)C(=O)N[C@@H](CCCNC(=N)N)C(=O)N[C@@H](CC(C)C)C(=O)NC(C)(C)C(=O)N[C@@H](C)C(=O)N[C@@H](CCCCN)C(=O)N[C@@H](CC(C)C)C(N)=O)C(C)C)C(C)C [JBT0740],solubility,physchem,920 µg/mL
same,plasma concentration after intravenous administration,"[4]; 10 mg/kg i.v., FIG. 31",rapidly cleared from the plasma
Ac-FQSKNNVFVFGYFERLRAKL-NH2 [JBT0297],Kd,human TFPI-1,29 nM
same,EC50,TFPI,600 nM
"CC(=O)N[C@@H](Cc1ccccc1)C(=O)N[C@@H](CCC(N)=O)C(=O)N[C@@H](CO)C(=O)N[C@@H](CCCCN)C(=O)N1CCC[C@@H]1C(=O)N[C@@H](CC(N)=O)C(=O)N[C@H](C(=O)N[C@@H](Cc1c[nH]cn1)C(=O)N[C@H](C(=O)N[C@@H](CC(=O)O)C(=O)N[C@@H]1CSSCC[C@@H](C(=O)N[C@@H](CCCNC(=N)N)C(=O)N[C@@H](CC(C)C)C(=O)NC(C)(C)C(=O)N[C@@H](C)C(=O)N[C@@H](CCCCN)C(=O)N[C@@H](CC(C)C)C(N)=O)NC(=O)[C@H](Cc2ccccc2)NC(=O)[C@H](Cc2ccc(O)cc2)NC1=O)C(C)(C)C)C(C)C [JBT00002494, Ac-FQSKpNVH-Tle-D[cYF-Hcy-]RL-Aib-AKL-NH2] (Ac-FQSK[dP]NVH[Tle]D[dC]YF[hCys]RL[Aib]AKL-NH2; disulfide 11-14)",IC50,[6],2.84 nM
